Our source for the GI50 and TGI values is PubChem BioAssay (NCI).

What all share (test): NCI tumour cell line growth inhibition, 48 h
In test [1] the test system is SF-268 CNS.
The test system of test [2] is ACHN renal.
Test [3] has as its system HCT-15 colon.
Test [4] concerns NCI-H23 lung.
Test [5] deals with COLO 205 colon.
The subject of test [6] is MOLT-4 leukemia.
The subject of test [7] is SK-OV-3 ovarian.
The subject of test [8] is SK-MEL-2 melanoma.
In test [9] the test system is HT29 colon.
Test [10] relates to OVCAR-3 ovarian.

The structures appear in SMILES notation.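 Method: 48-hour compound exposure of cells in 96-well plates, five concentrations, linear interpolation of endpoints. GI50 marks 50% less growth. TGI marks complete inhibition of growth.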 Bounds are passed on as bounds.

`COc1ccc2c(c1)C(=O)c1c-2c(OCCN(C)C)nc2ccccc12`: the GI50 in [1] is 2.34 µM; in test [2], 1.62 µM; in [3], 2.02 µM; in test [4] it was 3.8 µM; in test [5] it was 1.83 µM; in [6], 0.524 µM. Also, the GI50 is 4.87 µM in test [7], 12.2 µM in test [8], 1.46 µM in [9] and 2.48 µM in test [10]. Besides, the TGI was found to be 10.7 µM in [1]; 5.47 µM in [2]; 11.3 µM in test [3]; 16.7 µM in [4]; 10.1 µM in test [5]; 5.64 µM in test [6]. Further, the TGI in [7] came to 35.3 µM; in [8], 25.7 µM; in test [9], 5.01 µM; in test [10] it was 7.01 µM.
In the case of `CC1=C(C(=O)Nc2ccc(Cl)c(Cl)c2)C(c2ccc([N+](=O)[O-])cc2)C(C(=O)Nc2ccc(Cl)c(Cl)c2)=C(C)N1`, the TGI is 14.8 µM in [1]; 16.9 µM in test [2]; 7.88 µM in test [3]; 5.98 µM in test [4]; 3.13 µM in [5]; greater than 100 µM in test [6]. Also, the TGI amounted to 24.8 µM in test [7], 4.79 µM in [8], 7.55 µM in [9] and 4.56 µM in [10].
Consider `CCOC(=O)c1cc2c(cc1Cl)SC(=Nc1ccccc1)N(S(=O)(=O)c1ccc(Br)s1)S2(=O)=O`, for which the GI50 in test [1] is 19.2 µM; in [2], 14.4 µM; in test [3], 13.5 µM; in [4], 18.3 µM; in test [5] it was 25.2 µM; in test [6] it was 4.37 µM. Moreover, the GI50 in test [7] was 34.5 µM; in test [8], 15.8 µM; in test [9] it was 31.2 µM; in test [10], 12.2 µM. In addition, the TGI is 46.5 µM in test [1]; 27.5 µM in test [2]; 27.1 µM in [3]; 42.2 µM in test [4]; greater than 100 µM in test [5]; 17.9 µM in test [6]. Besides, the TGI is greater than 100 µM in test [7], 43.3 µM in test [8], greater than 100 µM in test [9] and 24.7 µM in [10].
Take `c1cc(N2CCN(c3ccc(C4=NCCCN4)cc3)CC2)ccc1C1=NCCCN1`: the GI50 in test [1] was greater than 75.8 µM; in test [2], greater than 69.9 µM; in [3] it was greater than 100 µM; in test [4] it was 30 µM; in test [5] it was greater than 45.6 µM; in test [6], 19.4 µM. Further, the GI50 was greater than 100 µM in test [7], greater than 100 µM in test [8], greater than 53.2 µM in test [9] and greater than 32.2 µM in test [10]. Further, the TGI in test [1], in test [2], in test [3], in [4], in test [5] and in test [6] was greater than 100 µM throughout. In addition, the TGI in [7], in test [8], in [9] and in [10] was greater than 100 µM in each case.
As to `CC(C)C[C@H](NC(=O)CCn1ccc2ccccc2c1=O)B(O)O`, the GI50 in test [1] is 5.69 µM; in [2], 1.75 µM; in test [3], 9.57 µM; in test [4], 25.4 µM; in test [5], 5.06 µM; in test [6], 1.28 µM. The GI50 in [7] is 4.72 µM; in test [8] it was 3.58 µM; in test [9] it was 3.68 µM; in [10] it was 1.97 µM. The TGI in [1] is 30.4 µM; in test [2], greater than 100 µM; in [3] it was greater than 100 µM; in [4], greater than 100 µM; in test [5], greater than 100 µM; in test [6], 5.94 µM. The TGI in test [7] was 81.3 µM; in test [8], 32.5 µM; in test [9], 48.7 µM; in [10], 5.66 µM.
On to `C1CSCCSCCCSCCSCCCSCCSCCCSCCSC1`, for which the TGI in test [1], in test [2], in test [3], in test [4], in test [5] and in test [6] was greater than 100 µM in each case. The TGI in [7], in test [8], in test [9] and in test [10] was greater than 100 µM throughout.
As to `O=C(Cc1nc2ccccc2o1)C(=O)Nc1cccc(C(F)(F)F)c1`, the TGI in [1], in test [2], in test [3], in test [4], in test [5] and in test [6] was greater than 100 µM in each case. Further, the TGI in test [7], in test [8], in test [9] and in [10] was greater than 100 µM each time.
As to `O=C(Nc1ccccc1OC(=O)c1ccccc1)c1ccccc1`, the GI50 in [1] was 3.98 µM; in test [2] it was 43.6 µM; in test [3] it was 4.37 µM; in [4], 8.05 µM; in [5], 30.1 µM; in [6] it was 3.55 µM. Further, the GI50 in [7] was 33.6 µM; in test [8], 51.1 µM; in test [9] it was 3.76 µM; in [10], 3.94 µM. Moreover, the TGI was greater than 100 µM in [1]; greater than 100 µM in [2]; greater than 100 µM in test [3]; greater than 100 µM in [4]; 95.6 µM in test [5]; greater than 100 µM in [6]. Further, the TGI was greater than 100 µM in test [7], greater than 100 µM in test [8], 41.4 µM in [9] and 22.2 µM in [10].
For `Oc1cccc2c1NCCC2`, the GI50 in test [1] is 0.244 µM; in test [2] it was 0.127 µM; in test [3] it was 0.19 µM; in test [4], 0.103 µM; in [5] it was 2.84 µM; in test [6], 1.27 µM. For the same compound, the GI50 in test [7] is 0.891 µM; in test [8], 0.433 µM; in test [9], 5.19 µM; in test [10], 0.0425 µM. Further, the TGI is greater than 67.2 µM in test [1]; greater than 70.7 µM in test [2]; greater than 100 µM in test [3]; greater than 37 µM in [4]; 12.9 µM in test [5]; greater than 100 µM in test [6]. The TGI in test [7] is greater than 100 µM; in [8], 2.96 µM; in test [9] it was greater than 100 µM; in test [10], 2.59 µM.
`COC(=O)c1cc(-c2ccc(OC)c(OC)c2)[nH]c1N/N=C/c1c(Cl)cccc1Cl`: the GI50 was 0.705 µM in test [1]; 1.18 µM in test [2]; 0.946 µM in test [3]; 0.848 µM in test [4]; 0.901 µM in [5]; 0.68 µM in test [6]. For the same compound, the GI50 is 0.567 µM in test [7], 0.832 µM in test [8], 0.434 µM in test [9] and 0.366 µM in [10]. In addition, the TGI was 6.27 µM in test [1]; 13.2 µM in test [2]; 24 µM in test [3]; 13 µM in test [4]; 4.95 µM in test [5]; greater than 100 µM in [6]. The TGI was 2.66 µM in test [7], 7.14 µM in test [8], 2.3 µM in [9] and 1.87 µM in test [10].
As for `O=C(NNS(=O)(=O)c1ccc(Cl)cc1Cl)c1cccnc1Nc1ccc(Cl)cc1`, the GI50 in [1] was 36.5 µM; in [2], 29.6 µM; in test [3], 33.4 µM; in [4], 17.3 µM; in test [5], 12.1 µM; in [6], 19.6 µM. Moreover, the GI50 in test [7] was 17.1 µM; in [8], 18.6 µM; in [9], 22.8 µM; in test [10], 20.6 µM. Further, the TGI in [1] is greater than 100 µM; in test [2], 93.5 µM; in [3], greater than 100 µM; in [4] it was 42.6 µM; in [5], 24.4 µM; in [6], 58.2 µM. For the same compound, the TGI in test [7] was 52.4 µM; in [8], 42.5 µM; in test [9], 54.2 µM; in test [10], greater than 100 µM.
In the case of `COc1cc2ncc3c(nc4sccn43)c2cc1OC`, the GI50 was greater than 100 µM in [1]; 10.2 µM in [2]; 11.1 µM in test [3]; 80.4 µM in test [4]; 38.2 µM in [5]; 29.3 µM in [6]. For the same compound, the GI50 in test [7] is 30.1 µM; in [8], 31.1 µM; in test [9] it was 69.7 µM; in test [10] it was 13.1 µM. The TGI is greater than 100 µM in test [1]; 26 µM in test [2]; greater than 100 µM in test [3]; greater than 100 µM in [4]; greater than 100 µM in [5]; greater than 100 µM in test [6]. Further, the TGI in test [7] is greater than 100 µM; in test [8] it was greater than 100 µM; in test [9], greater than 100 µM; in test [10], 42 µM.
For the compound `C[C@@H]1Cc2cc(O)ccc2[C@H]2CC[C@]3(C)/C(=C/COCCN(C)C)CC[C@H]3[C@H]12` (tested in a mixture with another compound), the GI50 is 0.111 µM in test [1]; 0.0429 µM in [2]; 0.205 µM in test [3]; 0.107 µM in [4]; 0.363 µM in test [5]; 0.0833 µM in test [6]. The GI50 was 0.228 µM in test [7], 0.323 µM in test [8], 0.368 µM in test [9] and 0.18 µM in test [10]. The TGI in test [1] stood at 0.235 µM; in [2], 0.201 µM; in test [3], 0.55 µM; in [4] it was 0.36 µM; in test [5] it was 1.03 µM; in test [6], 0.487 µM. For the same compound, the TGI came out at 0.62 µM in [7], 0.845 µM in test [8], 1.2 µM in [9] and 0.344 µM in test [10].
With `COc1cc2c(cc1F)C(c1ccccc1Cl)=Nc1c(n[nH]c1C)N2`, the GI50 in test [1] is 1.14 µM; in test [2], 1.45 µM; in test [3], 0.705 µM; in test [4], 3.79 µM; in test [5] it was 0.416 µM; in [6] it was 5 µM. Also, the GI50 is 1.59 µM in [7], 1.08 µM in test [8], 0.587 µM in test [9] and 0.597 µM in test [10]. Besides, the TGI amounted to 11.7 µM in [1]; 10.2 µM in [2]; 19.7 µM in test [3]; 21 µM in [4]; 3.79 µM in test [5]; 38.6 µM in [6]. Also, the TGI in [7] is 33.1 µM; in test [8] it was 17.3 µM; in test [9] it was 8.83 µM; in test [10] it was 21.6 µM.
On to `c1ccc2c(c1)CCc1c-2n[nH]c1-c1[nH]nc2c1CCc1ccccc1-2`, for which the TGI in test [1], in test [2], in [3], in [4], in [5] and in [6] was greater than 100 µM throughout. Besides, the TGI in test [7], in test [8], in test [9] and in test [10] was greater than 100 µM each time.
